Laboratory results taken from patent publication US9073903B2, “Imidazole-2,4-dione inhibitors of casein kinase 1” (Jasco Pharmaceuticals, LLC, priority 2010, dated 2015).
Like-named read-outs stand apart in the source and are kept apart here.

Key:
MDA-MB-468 cells = experiment: Inhibition of MDA-MB-468 cells (MTS cell proliferation); type: cell-based; conditions: for OD value 1 / OD value 2: 490 nm; for OD value 1 / OD value 2 / inhibition at 0.4 µM / inhibition at 0.8 µM / inhibition at 1.6 µM / inhibition at 3.2 µM / inhibition at 6.25 µM / inhibition at 12.5 µM / inhibition at 25 µM / inhibition at 50 µM / inhibition at 100 µM: 72 h; for inhibition at 0.4 µM / inhibition at 0.8 µM / inhibition at 1.6 µM / inhibition at 3.2 µM / inhibition at 6.25 µM / inhibition at 12.5 µM / inhibition at 25 µM / inhibition at 50 µM / inhibition at 100 µM / IC50: Homo sapiens
Procedure: Inhibition of MDA-MB-468 Cells Cells: MDA-MB-468 cells, ATCC Passage unknown, Mycoplasma free. Medium: RPMI-1640 Medium (GIBCO Cat #22400121) supplemented with 10% fetal bovine serum (Hyclone Cat #SH30396.03). Seeding: 2,000 cells/well (100 ul) into 96-wells plate, incubated overnight at 37° C. in a humidified, 5% CO2 atmosphere. Treatment: Test compounds and Gemcitabine were prepared in a serial dilution (1:2) by culture medium. Fifty microliters (50 uL) of serially diluted solutions were added into each well. The final concentrations of the positive control and test compounds were shown in the graphs. The cells were incubated for 72 hours after addition of the test compounds. MTS: 15 uL of MTS solution (Promega Cat #G5430) was added into each well and incubated with cells for 4 hours at 37° C. in a humidified, 5% CO2 atmosphere. Measurement: Absorbance at 490 nm was measured using MD Spectramax Plus384 spectrophotometer. The regression curves were calculated by the GraphPad Prism 5 using “log(inhibitor) vs response—variable slope”.

DU145 cells = experiment: Inhibition of DU145 cells (MTS cell proliferation); type: cell-based; conditions: for inhibition at 0.4 µM / inhibition at 0.8 µM / inhibition at 1.6 µM / inhibition at 3.2 µM / inhibition at 6.25 µM / inhibition at 12.5 µM / inhibition at 25 µM / inhibition at 50 µM / inhibition at 100 µM / IC50: Homo sapiens, DU-145; for inhibition at 0.4 µM: 0.400 uM; for inhibition at 0.8 µM: 0.800 uM; for inhibition at 1.6 µM: 1.600 uM; for inhibition at 3.2 µM: 3.200 uM; for inhibition at 6.25 µM: 6.250 uM; for inhibition at 12.5 µM: 12.500 uM
Procedure: Inhibition of DU145 Cells Cells: DU145 cells, ATCC Passage unknown, Mycoplasma free. Medium: DMEM Medium (GIBCO Cat #11995073) supplemented with 10% fetal bovine serum (Hyclone Cat #SH30396.03). Seeding: 750 cells/well (100 μL) into 96-wells plate, incubated overnight at 37° C. in a humidified, 5% CO2 atmosphere. Treatment: Test compounds and Gemcitabine were prepared in a serial dilution (1:2) by culture medium. Fifty microliters (50 uL) of serially diluted solutions were added into each well. The final concentrations of the positive control and test compounds were shown in the graphs. The cells were incubated for 72 hours after addition of the test compounds. MTS: 15 uL of MTS solution (Promega Cat #G5430) was added into each well and incubated with cells for 4 hours at 37° C. in a humidified, 5% CO2 atmosphere. Measurement: Absorbance at 490 nm was measured using MD Spectramax Plus384 spectrophotometer. The regression curves were calculated by the GraphPad Prism 5 using “log(inhibitor) vs response—variable slope”.

[1] = 72 hours, replicate 1, read-out: % of inhibition 1
[2] = 72 hours, replicate 2, read-out: % of inhibition 2

Nc1ccn([C@@H]2O[C@H](CO)[C@@H](O)C2(F)F)c(=O)n1 [Gemcitabine]
OD value 1 (MDA-MB-468 cells; 0.400 μM, replicate 1): 0.313 | OD value 2 (MDA-MB-468 cells; 0.400 μM, replicate 2): 0.337 | OD value 1 (MDA-MB-468 cells; 0.800 μM, replicate 1): 0.275 | OD value 2 (MDA-MB-468 cells; 0.800 μM, replicate 2): 0.310 | OD value 1 (MDA-MB-468 cells; 1.600 μM, replicate 1): 0.201 | OD value 2 (MDA-MB-468 cells; 1.600 μM, replicate 2): 0.264 | OD value 1 (MDA-MB-468 cells; 3.200 μM, replicate 1): 0.151 | OD value 2 (MDA-MB-468 cells; 3.200 μM, replicate 2): 0.192 | OD value 1 (MDA-MB-468 cells; 6.250 μM, replicate 1): 0.101 | OD value 2 (MDA-MB-468 cells; 6.250 μM, replicate 2): 0.105 | OD value 1 (MDA-MB-468 cells; 12.500 μM, replicate 1): 0.066 | OD value 2 (MDA-MB-468 cells; 12.500 μM, replicate 2): 0.053 | OD value 1 (MDA-MB-468 cells; 25.000 μM, replicate 1): 0.033 | OD value 2 (MDA-MB-468 cells; 25.000 μM, replicate 2): 0.035 | OD value 1 (MDA-MB-468 cells; 50.000 μM, replicate 1): 0.064 | OD value 2 (MDA-MB-468 cells; 50.000 μM, replicate 2): 0.064 | OD value 1 (MDA-MB-468 cells; 100.000 μM, replicate 1): 0.034 | OD value 2 (MDA-MB-468 cells; 100.000 μM, replicate 2): 0.007 | inhibition at 0.4 µM (MDA-MB-468 cells; MDA-MB-468, 0.400 μM, replicate 1, read-out: % of inhibition 1): 6.01% | inhibition at 0.4 µM (MDA-MB-468 cells; MDA-MB-468, 0.400 μM, replicate 2, read-out: % of inhibition 2): 1.17% | inhibition at 0.8 µM (MDA-MB-468 cells; MDA-MB-468, 0.800 μM, replicate 1, read-out: % of inhibition 1): 17.4% | inhibition at 0.8 µM (MDA-MB-468 cells; MDA-MB-468, 0.800 μM, replicate 2, read-out: % of inhibition 2): 9.08% | inhibition at 1.6 µM (MDA-MB-468 cells; MDA-MB-468, 1.600 μM, replicate 1, read-out: % of inhibition 1): 39.6% | inhibition at 1.6 µM (MDA-MB-468 cells; MDA-MB-468, 1.600 μM, replicate 2, read-out: % of inhibition 2): 22.6% | inhibition at 3.2 µM (MDA-MB-468 cells; MDA-MB-468, 3.200 μM, replicate 1, read-out: % of inhibition 1): 54.7% | inhibition at 3.2 µM (MDA-MB-468 cells; MDA-MB-468, 3.200 μM, replicate 2, read-out: % of inhibition 2): 43.6% | inhibition at 6.25 µM (MDA-MB-468 cells; MDA-MB-468, 6.250 μM, replicate 1, read-out: % of inhibition 1): 69.7% | inhibition at 6.25 µM (MDA-MB-468 cells; MDA-MB-468, 6.250 μM, replicate 2, read-out: % of inhibition 2): 69.1% | inhibition at 12.5 µM (MDA-MB-468 cells; MDA-MB-468, 12.500 μM, replicate 1, read-out: % of inhibition 1): 80.2% | inhibition at 12.5 µM (MDA-MB-468 cells; MDA-MB-468, 12.500 μM, replicate 2, read-out: % of inhibition 2): 84.4% | inhibition at 25 µM (MDA-MB-468 cells; MDA-MB-468, 25.000 μM, replicate 1, read-out: % of inhibition 1): 90.1% | inhibition at 25 µM (MDA-MB-468 cells; MDA-MB-468, 25.000 μM, replicate 2, read-out: % of inhibition 2): 89.6% | inhibition at 50 µM (MDA-MB-468 cells; MDA-MB-468, 50.000 μM, replicate 1, read-out: % of inhibition 1): 80.8% | inhibition at 50 µM (MDA-MB-468 cells; MDA-MB-468, 50.000 μM, replicate 2, read-out: % of inhibition 2): 81.1% | inhibition at 100 µM (MDA-MB-468 cells; MDA-MB-468, 100.000 μM, replicate 1, read-out: % of inhibition 1): 89.8% | inhibition at 100 µM (MDA-MB-468 cells; MDA-MB-468, 100.000 μM, replicate 2, read-out: % of inhibition 2): 97.8% | IC50 (MDA-MB-468 cells; MDA-MB-468, Table 17, read-out: MDA-MB-468* 50% inhibition concentration): 3.34 µM | IC50 (MDA-MB-468 cells; Table 26, MDA-MB-468, 72 hours, read-out: 50% viability conc.): 3.34 µM | IC50 (MDA-MB-468 cells; Table 26, MDA-MB-468, 72 hours, read-out: IC50): 2.53 µM | Maximal inhibition % (MDA-MB-468 cells; Table 26, MDA-MB-468, 72 hours): 93.83% | inhibition at 0.4 µM (DU145 cells; [1]): 17.4% | inhibition at 0.4 µM (DU145 cells; [2]): 15.6% | inhibition at 0.8 µM (DU145 cells; [1]): 35.2% | inhibition at 0.8 µM (DU145 cells; [2]): 32.9% | inhibition at 1.6 µM (DU145 cells; [1]): 59% | inhibition at 1.6 µM (DU145 cells; [2]): 54.3% | inhibition at 3.2 µM (DU145 cells; [1]): 95.5% | inhibition at 3.2 µM (DU145 cells; [2]): 96.2% | inhibition at 6.25 µM (DU145 cells; [1]): 96.8% | inhibition at 6.25 µM (DU145 cells; [2]): 96.2% | inhibition at 12.5 µM (DU145 cells; [1]): 96.6% | inhibition at 12.5 µM (DU145 cells; [2]): 97.3% | inhibition at 25 µM (DU145 cells; [1]): 97% | inhibition at 25 µM (DU145 cells; [2]): 96.2% | inhibition at 50 µM (DU145 cells; [1]): 97.4% | inhibition at 50 µM (DU145 cells; [2]): 98.9% | inhibition at 100 µM (DU145 cells; [1]): 97.9% | inhibition at 100 µM (DU145 cells; [2]): 97.2% | IC50 (DU145 cells; Table 17, read-out: DU145* 50% inhibition concentration): 1.28 µM | IC50 (DU145 cells; Table 26, DU145, 72 hours, read-out: 50% viability conc.): 1.28 µM | IC50 (DU145 cells; Table 26, DU145, 72 hours, read-out: IC50): 1.17 µM | Maximal inhibition % (DU145 cells; Table 26, DU145, 72 hours): 97.55%
